Experimental data taken from article PMC9080521, “Molecular basis of rutin inhibition of protein disulfide isomerase (PDI) by combined in silico and experimental methods” (RSC Advances, 2018).

Legend:
full-length human PDI = full-length human PDI (Homo sapiens, UniProt P07237); assay: Insulin reduction assay; format: biochemical; conditions: compound 100 μM; for turbidity (OD650), raw kinetic read at 1:40:32: 1.5 μM protein, last read (100 min), PDI alone 1.125
Method: (§1) The insulin reduction assay was performed to assess the enzymatic activity of PDI and its MBP-fused recombinant proteins. PDI can reduce insulin in the presence of dithiothreitol (DTT) along with increase in turbidity of the reaction mixture. We thus monitored spectrophotometrically the aggregation of reduced insulin through the increase of turbidity. The reductase activity was measured in 100 μL in presence of 600 μM insulin, 1.5 μM PDI and recombinant PDI proteins, 1 mM DTT, and with protein buffer (pH 7.4), at room temperature over 100 min by absorption at 650 nm. For inhibition assay, 100 μM of rutin, kaempferitrin, tiliroside and 2′-O-galloylhyperin or control buffer was added to the reaction system.

wt MBP-PDI-b′xa′ = molecular target: T1, wt MBP-PDI-b′xa′ (Homo sapiens, UniProt P07237); assay: Insulin reduction assay; format: biochemical; conditions: compound 100 μM, 1.5 μM protein, last read (100 min); WT alone 0.829
T1 construct: MBP-PDI-b′xa′(235–479); His-tag; made in house; host or cells: E. coli BL21 (DE3)
Method: as §1
We further used the insulin reduction assay to measure the reductase activities of these site-directed MBP-PDI-b′xa′ mutants. This assay has typically good reproducibility as shown by a control experiment with three repetitions (Fig. S7 ^†). We found the PDI mutants maintained reductase activities in the presence of dithiothreitol (DTT). The H354A mutation lowered the reductase activity of wt MBP-PDI-b′xa′ (Fig. 3G) while other mutants had similar reductase activities with that of wt MBP-PDI-b′xa′ (Fig. 3C, F and H–J). Addition of rutin inhibited the reductase activities of both wt MBP-PDI-b′xa′ and the mutants (Fig. 3C and F–J). […] We quantified the inhibition of rutin on these MBP-PDI-b′xa′ mutants by measuring the increase of turbidity (OD650 at 100 min) upon addition of rutin (Fig. 3K).

PDI = system: PDI; parameters: method as in PMID 21121641; conditions: read-out: inhibits PDI at; cited from earlier work
[1] = system: plasma thrombin generation activity; parameters: method as in PMID 28097231; conditions: human, oral administration (1 gram); cited from earlier work

full-length human PDI, sequence (P07237 18-508): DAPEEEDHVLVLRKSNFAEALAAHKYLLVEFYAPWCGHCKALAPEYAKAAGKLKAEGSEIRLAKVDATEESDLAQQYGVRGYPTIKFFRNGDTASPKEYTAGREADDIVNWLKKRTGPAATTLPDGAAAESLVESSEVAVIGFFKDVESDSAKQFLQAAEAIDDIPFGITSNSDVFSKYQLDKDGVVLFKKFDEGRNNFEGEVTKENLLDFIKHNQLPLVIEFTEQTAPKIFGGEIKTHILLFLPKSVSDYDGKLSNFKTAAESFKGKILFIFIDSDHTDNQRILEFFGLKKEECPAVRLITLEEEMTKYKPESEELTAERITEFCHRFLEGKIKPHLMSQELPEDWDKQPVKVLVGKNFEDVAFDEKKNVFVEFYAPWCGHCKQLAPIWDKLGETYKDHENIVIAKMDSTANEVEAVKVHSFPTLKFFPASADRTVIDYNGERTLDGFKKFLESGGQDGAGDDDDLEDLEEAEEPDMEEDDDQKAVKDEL
T1 sequence (P07237 235-479): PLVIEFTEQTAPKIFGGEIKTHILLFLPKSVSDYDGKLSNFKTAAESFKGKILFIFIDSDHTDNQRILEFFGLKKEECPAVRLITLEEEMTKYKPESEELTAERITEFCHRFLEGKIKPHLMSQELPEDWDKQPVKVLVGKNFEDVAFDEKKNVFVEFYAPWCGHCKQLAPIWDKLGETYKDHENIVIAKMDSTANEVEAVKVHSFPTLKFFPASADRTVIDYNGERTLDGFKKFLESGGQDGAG

| SMILES | turbidity (OD650), raw kinetic read at 1:40:32 (full-length human PDI) | turbidity (OD650), raw kinetic read at 1:40:32 (wt MBP-PDI-b′xa′) | IC50 (PDI) | reduction of plasma thrombin generation activity [1] | inhibitory activity on reductase activity (full-length human PDI; full-length human PDI) |
| --- | --- | --- | --- | --- | --- |
| O=C(/C=C/c1ccc(O)cc1)OC[C@H]1O[C@@H](Oc2c(-c3ccc(O)cc3)oc3cc(O)cc(O)c3c2=O)[C@H](O)[C@@H](O)[C@@H]1O [tiliroside] | 0.925 | 0.5 |  |  |  |
| C/C1=C/[C@H](O)C(C)(C)CCC/C(C)=C/C[C@H]1OC(=O)c1ccc(O)cc1 [juniferdin] |  |  | 156 nM |  |  |
| O=c1c(O[C@@H]2O[C@H](CO)[C@@H](O)[C@H](O)[C@H]2O)c(-c2ccc(O)c(O)c2)oc2cc(O)cc(O)c12 [isoquercetin] |  |  |  | about half |  |
| C[C@@H]1O[C@@H](Oc2cc(O)c3c(=O)c(O[C@@H]4O[C@@H](C)[C@H](O)[C@@H](O)[C@H]4O)c(-c4ccc(O)cc4)oc3c2)[C@H](O)[C@H](O)[C@H]1O [kaempferitrin] | 0.998 | 0.56 |  |  | smaller than that of rutin |
